Assay results: patent US20190133968A1, “Applications of benzophenones in preparation of drug” (SHANXI MEDICAL UNIVERSITY, priority 2016, published 2019)

Tested on: DN rats
Test: type II diabetic nephropathy (DN) rat model (high-sugar high-fat diet + streptozocin)
Assay type: in vivo, SD (Sprague Dawley) rats
Details: for BUN / CREA / Glycated hemoglobin / Urinary protein / mALB (microalbumin in urine) / ICAM-1 / IL-1β / IL-6 / MDA / NF-κB / SOD / T-AOC / TGF-β1 / TNF-α / Glucose (GLU) / HDL-C / LDL-C / TC / TG / UA / Kidney coefficient / VCAM-1: gavage, 6 weeks; for Urinary protein / mALB (microalbumin in urine): 6-hour urine; for ICAM-1 / IL-1β / IL-6 / MDA / NF-κB / SOD / T-AOC / TGF-β1 / TNF-α / VCAM-1: renal tissues; for Glucose (GLU) / HDL-C / LDL-C / TC / TG / UA: serum; for Kidney coefficient: weights of two kidneys/body weight
Protocol: The solid dispersions are prepared through a solvent method, comprising steps of: respectively precisely weighing LM49, PVPK30 and tween80 with a weight ratio of 1:5:1, and A8, PVPK30 and tween80 with a weight ratio of 1:4:1; dissolving with appropriate absolute ethyl alcohol, continuously stirring, and uniformly mixing; placing on the water bath at 60° C., evaporating and removing the absolute ethyl alcohol, and obtaining a viscous material; placing in the freezer at −20° C., and freezing for 2 hours; taking out from the freezer, then placing in the vacuum drying oven, and drying for 24 hours; after becoming embrittlement, smashing and sieving with a sieve of 80 meshes, and then placing in the dryer for storage.
The healthy adult male SD rats (having a weight of 180-220 g) are fed with the high-sugar and high-fat diet for 4 weeks; the rats are fasting overnight; and streptozocin (STZ) of 40 mg/kg is intraperitoneally injected into the rats. The rats of normal control group are injected with the sodium citrate buffer of same volume; 72 hours later, the rats are fasting for 12 hours. […] During the administration period, the successfully established model rats are still fed with the high-sugar and high-fat diet, while the rats of the normal control group are fed with the normal diet.
After administration for 6 weeks, 6-hour urine of the rats is collected with the metabolism cage.
The rats are fasting overnight and anesthetized intraperitoneally, then the abdominal aorta blood thereof is drawn for measuring the related indexes. The two kidneys of each rat are washed with the normal saline; weights of the kidneys are recorded; and the kidney coefficient (weights of two kidneys/body weight) is calculated. The renal tissues (comprising the glomerulus and renal tubules) at the same part of the left kidney are cut lengthwise and immersed in the 10% neutral formalin for pathomorphology analysis, and the other parts of the left kidney are used for biochemical index measurement; the right kidney is used for mechanism research and stored in the freezer at −80° C.
After successfully establishing the model rats, expect the normal control group (ten rats), the remaining rats are randomly divided into eight groups, wherein each group has twelve rats. The eight groups are respectively the model group, the LM49 solid dispersion low-dose group (with the drug concentration of 3 mg/kg), the LM49 solid dispersion medium-dose group (with the drug concentration of 9 mg/kg), the LM49 solid dispersion high-dose group (with the drug concentration of 27 mg/kg), the A8 solid dispersion low-dose group (with the drug concentration of 3 mg/kg), the A8 solid dispersion medium-dose group (with the drug concentration of 9 mg/kg), the A8 solid dispersion high-dose group (with the drug concentration of 27 mg/kg), and the captopril control group (with the drug concentration of 15 mg/kg).
Administration Way: By Gavage.
The rats of the normal control group and the model group are administrated with the normal saline of 1.0 ml/100 g; the rats of the positive control group, the LM49 solid dispersion high-dose, medium-dose and low-dose groups and the A8 solid dispersion high-dose, medium-dose and low-dose groups are respectively administrated with the drugs of different concentrations, and the administration volume is 1.0 ml/100 g.
The solid dispersions are dissolved by the normal saline; and the rats of the positive control group are administrated with the 0.5% CMC-Na (sodium carboxymethyl cellulose) suspension.
The rats are administrated seven days a week, for totally six weeks.
The IBM SPSS Statistics 20 software is used for data processing, and the data is represented in x±s. The one-way analysis of variance (ANOVA) is adopted for comparison among the groups. According to the homogeneity test results of variance, if the variance is equal, the LSD (least significant difference) test is adopted; if the variance is unequal, the Dunnett's T3 test is adopted. […]

Q: `O=C(c1cc(OC(=O)N2CCOCC2)c(OC(=O)N2CCOCC2)cc1Cl)c1cc(Cl)ccc1OC(=O)N1CCOCC1` [A8, 4,5,2′-tris(4-morpholinemethanoyl)-2,5′-dichlorobenzophenone] was tested. Which BUN (DN rats, high-dose 27 mg/kg) did it give?
A: Its BUN is 10.05 ± 1.61 mmol/L.

Q: And the CREA (DN rats, high-dose 27 mg/kg)?
A: Its CREA is 52.06 ± 1.66 µmol/L.

Q: What about the Glycated hemoglobin (DN rats, high-dose 27 mg/kg) of the same molecule?
A: The Glycated hemoglobin was 6.44 ± 0.53^□□● %.

Q: And the Urinary protein (DN rats, high-dose 27 mg/kg)?
A: Its Urinary protein is 1.42 ± 0.71^□□●●▴ mg/6 h.

Q: What about the “mALB (microalbumin in urine)” value (DN rats, high-dose 27 mg/kg) of the same molecule?
A: Its value is 39.00 ± 7.58^□□●●▴▴ μg/6 h.

Q: And the ICAM-1 (DN rats, high-dose 27 mg/kg)?
A: Its ICAM-1 is 322.5 ± 85.70 pg/mgprog.

Q: What about the IL-1β (DN rats, high-dose 27 mg/kg) of the same molecule?
A: The IL-1β was 133.45 ± 24.68 pg/mgprog.

Q: And the IL-6 (DN rats, high-dose 27 mg/kg)?
A: Its IL-6 is 71.29 ± 14.14^□□● pg/mgprog.

Q: What about the MDA (DN rats, high-dose 27 mg/kg) of the same molecule?
A: The MDA was 1.42 ± 0.25 nmol/mgprog.

Q: And the NF-κB (DN rats, high-dose 27 mg/kg)?
A: The NF-κB was 298.32 ± 58.92^□□▴▴◯◯ pg/mgprog.

Q: And the SOD (DN rats, high-dose 27 mg/kg)?
A: Its SOD is 4.37 ± 1.25 U/mgprog.

Q: And the T-AOC (DN rats, high-dose 27 mg/kg)?
A: Its T-AOC is 1.32 ± 0.17 U/mgprog.

Q: And the TGF-β1 (DN rats, high-dose 27 mg/kg)?
A: The TGF-β1 was 21.36 ± 4.64^□□●●▴▴ pg/mgprot.

Q: And the TNF-α (DN rats, high-dose 27 mg/kg)?
A: The TNF-α was 304.51 ± 73.47^□ pg/mgprog.

Q: And the “Glucose (GLU)” value (DN rats, high-dose 27 mg/kg)?
A: The value was 9.75 ± 2.11^□□●●▴◯ mmol/L.

Q: And the HDL-C (DN rats, high-dose 27 mg/kg)?
A: Its HDL-C is 1.20 ± 0.27 mmol/L.

Q: What about the LDL-C (DN rats, high-dose 27 mg/kg) of the same molecule?
A: Its LDL-C is 1.01 ± 0.20^□□●▴ mmol/L.

Q: What about the TC (DN rats, high-dose 27 mg/kg) of the same molecule?
A: The TC was 1.42 ± 0.19^□□●●▴◯ mmol/L.

Q: And the TG (DN rats, high-dose 27 mg/kg)?
A: The TG was 0.30 ± 0.08^□□ mmol/L.

Q: What about the UA (DN rats, high-dose 27 mg/kg) of the same molecule?
A: Its UA is 26.44 ± 5.85^□□●● μmol/L.

Q: What about the Kidney coefficient (DN rats, high-dose 27 mg/kg) of the same molecule?
A: Its Kidney coefficient is 0.86 ± 0.05^□ %.

Q: What about the “lesions of the renal tissues” value (DN rats, kidney pathology (HE, Masson staining)) of the same molecule?
A: The value was “effectively reduce the lesions of the renal tissues”.

Q: What about the BUN (DN rats, low-dose 3 mg/kg) of the same molecule?
A: The BUN was 10.56 ± 1.74 mmol/L.

Q: And the CREA (DN rats, low-dose 3 mg/kg)?
A: Its CREA is 54.16 ± 2.95 µmol/L.

Q: And the Glycated hemoglobin (DN rats, low-dose 3 mg/kg)?
A: The Glycated hemoglobin was 8.64 ± 0.45%.

Q: What about the Urinary protein (DN rats, low-dose 3 mg/kg) of the same molecule?
A: Its Urinary protein is 3.64 ± 0.65^□□ mg/6 h.

Q: What about the “mALB (microalbumin in urine)” value (DN rats, low-dose 3 mg/kg) of the same molecule?
A: Its value is 88.91 ± 10.33^□□ μg/6 h.

Q: What about the ICAM-1 (DN rats, low-dose 3 mg/kg) of the same molecule?
A: Its ICAM-1 is 339.84 ± 92.15 pg/mgprog.

Q: What about the IL-1β (DN rats, low-dose 3 mg/kg) of the same molecule?
A: The IL-1β was 178.45 ± 31.59 pg/mgprog.

Q: What about the IL-6 (DN rats, low-dose 3 mg/kg) of the same molecule?
A: The IL-6 was 139.85 ± 55.41^□ pg/mgprog.

Q: And the MDA (DN rats, low-dose 3 mg/kg)?
A: Its MDA is 1.52 ± 0.38 nmol/mgprog.

Q: What about the NF-κB (DN rats, low-dose 3 mg/kg) of the same molecule?
A: Its NF-κB is 1601.45 ± 206.73^□●● ^ pg/mgprog.

Q: And the SOD (DN rats, low-dose 3 mg/kg)?
A: The SOD was 5.57 ± 1.75 U/mgprog.

Q: What about the T-AOC (DN rats, low-dose 3 mg/kg) of the same molecule?
A: The T-AOC was 1.39 ± 0.19 U/mgprog.

Q: What about the TGF-β1 (DN rats, low-dose 3 mg/kg) of the same molecule?
A: The TGF-β1 was 59.35 ± 7.34^□□ pg/mgprot.

Q: And the TNF-α (DN rats, low-dose 3 mg/kg)?
A: Its TNF-α is 485.60 ± 138.80 pg/mgprog.

Q: What about the VCAM-1 (DN rats, low-dose 3 mg/kg) of the same molecule?
A: The VCAM-1 was 37.85 ± 9.28 pg/mgprog.

Q: And the “Glucose (GLU)” value (DN rats, low-dose 3 mg/kg)?
A: The value was 13.11 ± 3.95^□□ mmol/L.

Q: What about the HDL-C (DN rats, low-dose 3 mg/kg) of the same molecule?
A: The HDL-C was 1.21 ± 0.28 mmol/L.

Q: What about the LDL-C (DN rats, low-dose 3 mg/kg) of the same molecule?
A: Its LDL-C is 1.77 ± 0.57^□□ mmol/L.

Q: And the TC (DN rats, low-dose 3 mg/kg)?
A: Its TC is 2.87 ± 0.69^□□ mmol/L.

Q: And the TG (DN rats, low-dose 3 mg/kg)?
A: Its TG is 0.39 ± 0.05^□□ mmol/L.

Q: What about the UA (DN rats, low-dose 3 mg/kg) of the same molecule?
A: Its UA is 28.22 ± 7.14^□□●● μmol/L.

Q: What about the Kidney coefficient (DN rats, low-dose 3 mg/kg) of the same molecule?
A: The Kidney coefficient was 1.06 ± 0.05%.

Q: And the BUN (DN rats, medium-dose 9 mg/kg)?
A: Its BUN is 10.07 ± 2.85 mmol/L.

Q: What about the CREA (DN rats, medium-dose 9 mg/kg) of the same molecule?
A: Its CREA is 53.06 ± 3.75 µmol/L.

Q: And the Glycated hemoglobin (DN rats, medium-dose 9 mg/kg)?
A: The Glycated hemoglobin was 7.33 ± 0.77^□ %.

Q: And the Urinary protein (DN rats, medium-dose 9 mg/kg)?
A: Its Urinary protein is 2.80 ± 1.02^□□●● mg/6 h.

Q: And the “mALB (microalbumin in urine)” value (DN rats, medium-dose 9 mg/kg)?
A: The value was 51.76 ± 9.44^□□●▴ μg/6 h.

Q: What about the ICAM-1 (DN rats, medium-dose 9 mg/kg) of the same molecule?
A: The ICAM-1 was 321.63 ± 82.35 pg/mgprog.

Q: And the IL-1β (DN rats, medium-dose 9 mg/kg)?
A: Its IL-1β is 155.22 ± 19.45 pg/mgprog.

Q: What about the IL-6 (DN rats, medium-dose 9 mg/kg) of the same molecule?
A: The IL-6 was 111.69 ± 35.86^□ pg/mgprog.

Q: And the MDA (DN rats, medium-dose 9 mg/kg)?
A: The MDA was 1.48 ± 0.16 nmol/mgprog.

Q: And the NF-κB (DN rats, medium-dose 9 mg/kg)?
A: Its NF-κB is 786.93 ± 79.73^□□▴▴● pg/mgprog.

Q: And the SOD (DN rats, medium-dose 9 mg/kg)?
A: Its SOD is 5.12 ± 1.41 U/mgprog.

Q: And the T-AOC (DN rats, medium-dose 9 mg/kg)?
A: The T-AOC was 1.37 ± 0.31 U/mgprog.

Q: And the TGF-β1 (DN rats, medium-dose 9 mg/kg)?
A: The TGF-β1 was 27.91 ± 5.90^□□▴▴ pg/mgprot.

Q: What about the TNF-α (DN rats, medium-dose 9 mg/kg) of the same molecule?
A: Its TNF-α is 321.27 ± 86.34^□ pg/mgprog.

Q: What about the VCAM-1 (DN rats, medium-dose 9 mg/kg) of the same molecule?
A: The VCAM-1 was 31.09 ± 5.42 pg/mgprog.

Q: What about the “Glucose (GLU)” value (DN rats, medium-dose 9 mg/kg) of the same molecule?
A: Its value is 11.86 ± 2.96^□□▴ mmol/L.

Q: What about the HDL-C (DN rats, medium-dose 9 mg/kg) of the same molecule?
A: The HDL-C was 1.23 ± 0.40 mmol/L.

Q: And the LDL-C (DN rats, medium-dose 9 mg/kg)?
A: The LDL-C was 1.41 ± 0.33^□□ mmol/L.

Q: And the TC (DN rats, medium-dose 9 mg/kg)?
A: Its TC is 2.33 ± 0.58^□□ mmol/L.

Q: And the TG (DN rats, medium-dose 9 mg/kg)?
A: The TG was 0.30 ± 0.07^□□ mmol/L.

Q: What about the UA (DN rats, medium-dose 9 mg/kg) of the same molecule?
A: The UA was 27.18 ± 5.37^□□●● μmol/L.

Q: And the Kidney coefficient (DN rats, medium-dose 9 mg/kg)?
A: The Kidney coefficient was 1.00 ± 0.11%.

Q: What about the “effect on resisting the DN of rats” value (overall summary in words) of the same molecule?
A: Its value is “stronger effect in resisting the DN of rats”.

Q: And the “activity in resisting the type II diabetic nephropathy, A8 compared with LM49” value (rat, in vivo)?
A: Its value is “higher activity in resisting the type II diabetic nephropathy than the compound LM49”.
